{"source": "patent US5519007A", "about": "“Lysosphingolipid derivatives” (Fidia, S.p.A., priority 1988, dated 1996)", "key": {"[1]": {"test": "Neurotoxicity of the compounds themselves in culture in the absence of glutamate", "assay_type": "cell-based, Sprague-Dawley rats", "settings": "rat, cerebellar granule cells; 24 hours, absence of glutamate; read-out: Neurotoxicity in 24 hours (ED50)", "description": "(§1) The following experiments show studies carried out with N-dichloroacetylsphingosine, in comparison to sphingosine. In particular, their effects on PKC translocation and glutamate-induced neuronal toxicity in primary granule cell cultures were observed. Possible cytotoxic effects of the products were assessed according to their neurotoxic effects in cerebellar cells in culture, as well as hemolysis.\n(§2) Primary cultures were prepared with granule cells from 8-day-old Sprague-Dawley rats (Zivic Miller). These cultures have a granule cell content of >90%, 5% of GABAergic neurons [Gallo V. et al., Proc. Natl. Acad. Sci. USA 79, 7919-7923 (1982)] and <5% of glia cells [Vaccarino F. M. et al., J. Neurosci. 7, 65-76 (1987)]. The cultures were used for the experiments on the 8th and 9th days in vitro.\n(§3) On the 8th and 9th days in vitro, sphingosines and N-dichloroacetylsphingosines at various concentrations (1-100μM) were added to the cultures. In particular, monolayers of granule cells were pre-incubated with these compounds in Locke's solution (1 ml) for 2 hrs at 37° C. The sphingosine was dissolved in ethanol, stored as an equimolar complex with bovine serum albumin (BSA) with no fatty acids, and diluted directly with the Locke's solution used to preincubate the cells. The N-dichloroacetylsphingosine was dissolved in DMSO and diluted directly in Locke's solution (as noted above). Aliquots of the dilutions were dried in a flow of N2, after which Locke's solution was added until the desired concentration was reached.\n(§4) Possibile cytotoxicity of the compounds themselves was calculated by assessing the toxicity in the […] cultures in the absence of glutamate. The experiments and techniques used were those described above, with the difference that glutamate was omitted. The possible hemolytic effects of the compounds were also assessed. Samples of blood were taken from 4 volunteers. Each sample was subdivided into three test tubes as follows: […]"}, "[2]": {"test_system": "cerebellar cells in culture", "test": "Neurotoxicity of the compounds themselves in culture in the absence of glutamate", "assay_type": "cell-based, Sprague-Dawley rats", "settings": "compared with concentrations antagonizing PKC translocation and neuronal toxicity induced by glutamate", "description": "as §1, §2, §3, §4"}, "[3]": {"test_system": "primary granule cell cultures", "test": "Protection from glutamate-induced neuronal toxicity in primary granule cell cultures", "assay_type": "cell-based, Sprague-Dawley rats", "quoted_text": "(§5) Primary cultures were prepared with granule cells from 8-day-old Sprague-Dawley rats (Zivic Miller). […] The cultures were used for the experiments on the 8th and 9th days in vitro.\nMonolayers of intact granule cells were pre-incubated with various compounds at various concentrations for 2 hours at 37° C. […] Cell survival was assessed by histochemical techniques after 24 hours. In particular, cell viability was assessed after fluorescein staining, which gives green fluorescence to vital cells and red fluorescence to nonvital ones."}, "protein-kinase C (PKC)": {"test_system": "protein-kinase C (PKC)", "test": "Glutamate-induced PKC translocation, [3H]-P(BtO)2 bond in intact primary cerebellar granule cells", "assay_type": "cell-based, Sprague-Dawley rats", "settings": "for IC50: 2 h pre-incubation at 37° C., 1 μM glutamate, absence of Mg2+, read-out: PKC inhibition (ED50), glutamate-induced PKC translocation", "quoted_text": "Translocation of PKC can be measured by assessment of the bond sites of 4-B-[3H]-phorbol 12,13-dibutyrate [3H]-P(Bt02) in intact cells.\nas §5\nAfter 2 hours' incubation at 37° C. of the cells with or without the compounds (see above), the monolayers were washed once and the [^3 H]-P(BtO2) bond was assessed in the presence of 1 μM of glutamate and in the absence of Mg^2 +. […] Preliminary experiments have shown that balance is reached within 10 minutes, so the monolayers were incubated with [^3 H]-P(Bt0)2 for 15 minutes at 22° C. […] After incubation, the cells were washed three times with cold Locke's solution, and then suspended with 0.1M NaOH. Aliquots of the suspension were then used for protein determination (9) and liquid scintillation count. The nonspecific bond was determined in the presence of 2 μM phorbol 12-tetradecanoate 13-acetate (PTA)."}, "blood": {"test_system": "blood", "test": "Hemolysis in blood of volunteers (cyanomethahemoglobin method)", "assay_type": "cell-based, human (volunteers)", "settings": "45 minutes at 37° C., various concentrations, vs plasma negative control; FIGURE"}, "PKC [4]": {"test_system": "PKC", "settings": "literature (Hannun, Merril, Wilson); cited from earlier work"}, "[5]": {"test_system": "glutamate high affinity recognition site", "settings": "literature; cited from earlier work"}, "PKC [6]": {"test_system": "PKC", "settings": "granule cells; Vaccarino et al. 1987; cited from earlier work"}, "granule cells": {"test_system": "granule cells", "settings": "literature; cited from earlier work"}, "[3H]-P(Bt02) bond": {"test_system": "[3H]-P(Bt02) bond", "settings": "literature; cited from earlier work"}}}
{"molecule": "CCCCCCCCCCCCC/C=C/[C@@H](O)[C@H](CO)NC(=O)C(Cl)Cl", "note": "[N-dichloroacetylsphingosine, N-DICHLOROACETYL SPHINGOSINE]", "values": [{"measurement": "CC50 at 24 h", "setting": "[1]", "value": "> 100", "unit": "µM"}, {"measurement": "Neurotoxicity of the compound itself (in words)", "setting": "[2]", "value": "either no toxicity at all, or toxicity at significantly higher concentrations than those able to antagonize translocation induced by glutamate (column 1) as well as the neuronal toxicity induced by glutamate"}, {"measurement": "Reduction of cell toxicity induced by glutamate (in words)", "setting": "[3]; 50 μM glutamate", "value": "significantly reducing cell toxicity induced by glutamate"}, {"measurement": "EC50", "setting": "[3]; Rattus norvegicus, 2 h pre-incubation at 37° C., 50 μM glutamate 15 min without Mg2+, survival after 24 hours, read-out: Protection from glutamate (ED50), neuronal toxicity induced by glutamate", "value": 30, "unit": "µM"}, {"measurement": "Inhibition of glutamate-induced PKC translocation (in words)", "setting": "protein-kinase C (PKC)", "value": "inhibited glutamate-induced PKC translocation"}, {"measurement": "IC50", "setting": "protein-kinase C (PKC)", "value": 30, "unit": "µM"}, {"measurement": "Hemolysis", "setting": "blood", "value": "does not cause hemolysis"}]}
{"molecule": "CCCCCCCCCCCCC/C=C/[C@@H](O)[C@@H](N)CO", "note": "[Sphingosine]", "values": [{"measurement": "CC50 at 24 h", "setting": "[1]", "value": "10 to 20", "unit": "µM"}, {"measurement": "IC50", "setting": "protein-kinase C (PKC)", "value": 20, "unit": "µM"}, {"measurement": "Effect on activity and translocation of PKC", "setting": "PKC [4]", "value": "inhibit the activity and translocation of PKC"}, {"measurement": "Hemolysis", "setting": "blood", "value": "contrary to sphingosine, does not cause hemolysis"}]}
{"molecule": "monosialosyl-N-tetra-glycosylceramide [GM1]", "values": [{"measurement": "Interference with the glutamate bond at its high affinity recognition site", "setting": "[5]", "value": "do not interfere with the glutamate bond up to its high affinity recognition site"}, {"measurement": "Effect on glutamate-induced translocation and activation of PKC", "setting": "PKC [6]", "value": "inhibits the translocation and activation of PKC induced by glutamate"}, {"measurement": "Protection from glutamate-induced cell damage", "setting": "granule cells", "value": "offer protection from glutamate-induced cell damage"}, {"measurement": "Interference with the [3H]-P(Bt02) bond", "setting": "[3H]-P(Bt02) bond", "value": "do not interfere with the glutamate bond up to its high affinity recognition site or with the [3H]-P(Bt02) bond"}]}
{"molecule": "trisialosyl-N-tetra-glycosylceramide [GT1b]", "values": [{"measurement": "Interference with the glutamate bond at its high affinity recognition site", "setting": "[5]", "value": "do not interfere with the glutamate bond up to its high affinity recognition site"}, {"measurement": "Effect on glutamate-induced translocation and activation of PKC", "setting": "PKC [6]", "value": "inhibits the translocation and activation of PKC induced by glutamate"}, {"measurement": "Protection from glutamate-induced cell damage", "setting": "granule cells", "value": "offer protection from glutamate-induced cell damage"}, {"measurement": "Interference with the [3H]-P(Bt02) bond", "setting": "[3H]-P(Bt02) bond", "value": "do not interfere with the glutamate bond up to its high affinity recognition site or with the [3H]-P(Bt02) bond"}]}
